# Legend:
# HCT-116 = test: Cytotoxicity against CD133 positive human HCT116 cells; format: functional, cell-based
# MCF7 [1] = test: Cytotoxicity against human paclitaxel-resistant MCF7 cells after 72 hrs by MTT assay; format: functional, cell-based; conditions: MCF7, 72 h
# A549 = test: Cytotoxicity against human A549 cells; format: functional, cell-based
# MCF7 [2] = test: Cytotoxicity against human MCF7 cells; format: functional, cell-based
# A121 = test: Cytotoxicity against human A121 cells; format: functional, cell-based
# [3] = Cytotoxicity against human MDA435/LCC6 cells; format: functional, cell-based; conditions: MDA-435/LCC6
# [4] = Cytotoxicity against human CD133/CD44 positive PPT2 cells assessed as cell death at 0.01 to 10 uM after 72 hrs by MTT assay; format: functional
# [5] = Cytotoxicity against human CD133/CD44 positive PC3MM2 cells assessed as cell death at 0.01 to 10 uM after 72 hrs by MTT assay; format: functional
SMILES,IC50 (HCT-116) [nM],IC50 (MCF7 [1]) [nM],further results
CC(=O)O[C@@]12CO[C@@H]1C[C@H](O)[C@@]1(C)C(=O)[C@H](OC(=O)C3CC3)C3=C(C)[C@@H](OC(=O)[C@H](O)[C@H](C=C(C)C)NC(=O)OC(C)(C)C)C[C@@](O)([C@@H](OC(=O)c4ccccc4)[C@H]21)C3(C)C,0.28,80.5,
CC(=O)O[C@@]12CO[C@@H]1C[C@H](O)[C@@]1(C)C(=O)[C@H](OC(=O)N(C)C)C3=C(C)[C@@H](OC(=O)[C@H](O)[C@H](C=C(C)C)NC(=O)OC(C)(C)C)C[C@@](O)([C@@H](OC(=O)c4ccccc4)[C@H]21)C3(C)C,0.83,,
CC(=O)O[C@H]1C(=O)[C@@]2(C)[C@H]([C@H](OC(=O)c3ccccc3)[C@]34OC(=O)O[C@H]3[C@H](OC(=O)[C@H](O)[C@H](C=C(C)C)NC(=O)OC(C)(C)C)C(C)=C1C4(C)C)[C@]1(OC(C)=O)CO[C@@H]1C[C@@H]2O,,66.7,
CC(=O)O[C@H]1C(=O)[C@@]2(C)[C@H]([C@H](OC(=O)C=C(C)C)[C@]3(O)C[C@H](OC(=O)[C@H](O)[C@H](C=C(C)C)NC(=O)OC(C)(C)C)C(C)=C1C3(C)C)[C@]1(OC(C)=O)CO[C@@H]1C[C@@H]2O,,,IC50 (A549): 0.9 nM; IC50 (MCF7 [2]): 0.9 nM; IC50 (A121): 0.9 nM
CC(=O)O[C@@]12CO[C@@H]1C[C@H](O)[C@@]1(C)C(=O)[C@H](OC(=O)C3CC3)C3=C(C)[C@@H](OC(=O)[C@H](O)[C@H](C=C(C)C)NC(=O)OC(C)(C)C)C[C@@](O)([C@@H](OC(=O)c4cccc(OC(F)(F)F)c4)[C@H]21)C3(C)C,,34.9,
CC(=O)O[C@@]12CO[C@@H]1C[C@H](O)[C@@]1(C)C(=O)[C@H](OC(=O)N(C)C)C3=C(C)[C@@H](OC(=O)[C@H](O)[C@H](C=C(C)C)NC(=O)OC(C)(C)C)C[C@@](O)([C@@H](OC(=O)c4cccc(OC(F)(F)F)c4)[C@H]21)C3(C)C,,31.4,
CC(=O)O[C@@]12CO[C@@H]1C[C@H](O)[C@@]1(C)C(=O)[C@H](OC(=O)N(C)C)C3=C(C)[C@@H](OC(=O)[C@H](O)[C@H](C=C(C)C)NC(=O)OC(C)(C)C)C[C@@](O)([C@@H](OC(=O)c4cccc(C)c4)[C@H]21)C3(C)C,0.24,,
CC(=O)O[C@H]1C(=O)[C@@]2(C)[C@H]([C@@H]3OC(=O)c4ccccc4OC/C=C/CC[C@H](NC(=O)OC(C)(C)C)[C@@H](O)C(=O)O[C@H]4C[C@]3(O)C(C)(C)C1=C4C)[C@]1(OC(C)=O)CO[C@@H]1C[C@@H]2O,,,IC50 [3]: 390 nM
CC(=O)O[C@H]1C(=O)[C@@]2(C)[C@H]([C@H](OC(=O)c3cccc(OC(F)(F)F)c3)[C@]3(O)C[C@H](OC(=O)[C@H](O)[C@H](C=C(C)C)NC(=O)OC(C)(C)C)C(C)=C1C3(C)C)[C@]1(OC(C)=O)CO[C@@H]1C[C@@H]2O,,19,
CCC(=O)O[C@H]1C(=O)[C@@]2(C)[C@H]([C@H](OC(=O)c3cccc(OC)c3)[C@]3(O)C[C@H](OC(=O)[C@H](O)[C@H](C=C(C)C)NC(=O)OC(C)(C)C)C(C)=C1C3(C)C)[C@]1(OC(C)=O)CO[C@@H]1C[C@@H]2O,,21.7,
CC(=O)O[C@@]12CO[C@@H]1C[C@H](O)[C@@]1(C)C(=O)[C@H](OC(=O)N(C)C)C3=C(C)[C@@H](OC(=O)[C@H](O)[C@H](C=C(F)F)NC(=O)OC(C)(C)C)C[C@@](O)([C@@H](OC(=O)c4ccccc4)[C@H]21)C3(C)C,0.14,,
COc1cccc2c1C(=O)c1c(O)c3c(c(O)c1C2=O)C[C@@](O)(C(=O)CO)C[C@@H]3O[C@H]1C[C@H](N)[C@H](O)[C@H](C)O1 [DOXORUBICIN],78,,
CO[C@]12C=C[C@](C)(O1)[C@@H](OC(=O)/C=C/c1cn(C)cn1)C[C@H]1C(C)=CC[C@H](C(C)C)[C@H]1/C=C\2CO[C@@H]1OC[C@@H](O)[C@@H](O)[C@@H]1OC(C)=O [ELEUTHEROBIN],,,Activity [4]: 60%; Activity [5]: 60%
CN(Cc1cnc2nc(N)nc(N)c2n1)c1ccc(C(=O)N[C@@H](CCC(=O)O)C(=O)O)cc1 [METHOTREXATE],32.7,,
CC(=O)O[C@H]1C(=O)[C@@]2(C)[C@H]([C@H](OC(=O)c3ccccc3)[C@]3(O)C[C@H](OC(=O)[C@H](O)[C@@H](NC(=O)c4ccccc4)c4ccccc4)C(C)=C1C3(C)C)[C@]1(OC(C)=O)CO[C@@H]1C[C@@H]2O [PACLITAXEL],33.8,,
CC[C@@]1(O)C(=O)OCc2c1cc1n(c2=O)Cc2cc3c(CN(C)C)c(O)ccc3nc2-1 [TOPOTECAN],451,,

# Source: ChEMBL document CHEMBL4251666, “Quest for Efficacious Next-Generation Taxoid Anticancer Agents and Their Tumor-Targeted Delivery” (J Nat Prod, 2018)
